Data taken from PMC5298231, “The Malaria Parasite's Lactate Transporter PfFNT Is the Target of Antiplasmodial Compounds Identified in Whole Cell Phenotypic Screens” (PLoS Pathogens, 2017).

Tested on: erythrocytes infected with 3D7 trophozoites
Assay type: cell-based, Plasmodium falciparum
Settings: Av 3hr; 6 μM

Q: Which results are given for `COc1ccc2c(c1)OC(O)(C(F)(F)C(F)(F)F)CC2=O` (stereo not shown) [MMV007839]?
A: 2-Hydroxyglutarate log2 ratio (+MMV007839/-MMV007839): -0.6103; 2-Ketoglutarate log2 ratio (+MMV007839/-MMV007839): -0.8232; 3-Phosho-D-glycerate log2 ratio (+MMV007839/-MMV007839): 0.07426; 3-Phospho-serine log2 ratio (+MMV007839/-MMV007839): -0.4035; 4-Aminobutanoate log2 ratio (+MMV007839/-MMV007839): 0.8488; 5-Phosphoribosyl-1-pyrophosphate log2 ratio (+MMV007839/-MMV007839): 0.5077; ADP log2 ratio (+MMV007839/-MMV007839): -0.7166; AMP log2 ratio (+MMV007839/-MMV007839): -0.5704; ATLS log2 ratio (+MMV007839/-MMV007839): -0.2347; ATP log2 ratio (+MMV007839/-MMV007839): -0.2177; Acetyl-CoA log2 ratio (+MMV007839/-MMV007839): -0.7235; Acetyl-L-alanine log2 ratio (+MMV007839/-MMV007839): -0.3599; Adenine log2 ratio (+MMV007839/-MMV007839): -0.8446; Arginine log2 ratio (+MMV007839/-MMV007839): 0.2396; Asparagine log2 ratio (+MMV007839/-MMV007839): -0.1753; Aspartic Acid log2 ratio (+MMV007839/-MMV007839): -0.3736; CDP log2 ratio (+MMV007839/-MMV007839): -0.5752; CDP-ethanolamine log2 ratio (+MMV007839/-MMV007839): 0.02366; CMP log2 ratio (+MMV007839/-MMV007839): -0.08882; CTP log2 ratio (+MMV007839/-MMV007839): -0.3119; Cholesteryl sulfate log2 ratio (+MMV007839/-MMV007839): -0.1335; Citrate log2 ratio (+MMV007839/-MMV007839): -0.1028; CoA log2 ratio (+MMV007839/-MMV007839): -0.556; Cyclic AMP log2 ratio (+MMV007839/-MMV007839): -0.7854; Cytidine log2 ratio (+MMV007839/-MMV007839): -0.2914; D-Glucono-1-4-lactone log2 ratio (+MMV007839/-MMV007839): 1.992; DALT log2 ratio (+MMV007839/-MMV007839): -0.8981; DEVG log2 ratio (+MMV007839/-MMV007839): -0.08263; DGLA log2 ratio (+MMV007839/-MMV007839): -0.7349; DLS log2 ratio (+MMV007839/-MMV007839): -0.6175; Deoxycytidine log2 ratio (+MMV007839/-MMV007839): 1.594; Dihydroorotate log2 ratio (+MMV007839/-MMV007839): -1.064; ESFG log2 ratio (+MMV007839/-MMV007839): -0.07747; EVGG log2 ratio (+MMV007839/-MMV007839): -0.1694; Erythrose 4-phosphate log2 ratio (+MMV007839/-MMV007839): -0.2579; FAD log2 ratio (+MMV007839/-MMV007839): -0.4239; FMN log2 ratio (+MMV007839/-MMV007839): -0.4985; Farnesyl diphosphate log2 ratio (+MMV007839/-MMV007839): -0.04123; Folate log2 ratio (+MMV007839/-MMV007839): -0.3602; Fructose-1-6-bisphosphate log2 ratio (+MMV007839/-MMV007839): 1.146; Fructose-6-Phosphate log2 ratio (+MMV007839/-MMV007839): 0.05598; GDP log2 ratio (+MMV007839/-MMV007839): -1.202; GDP-mannose log2 ratio (+MMV007839/-MMV007839): -0.4414; GMP log2 ratio (+MMV007839/-MMV007839): -1.665; GTP log2 ratio (+MMV007839/-MMV007839): -0.7051; Geranylgeranyl pyrophosphate log2 ratio (+MMV007839/-MMV007839): -0.6827; Gluconate log2 ratio (+MMV007839/-MMV007839): -0.02575; Glucose-6-Phosphate log2 ratio (+MMV007839/-MMV007839): -0.3489; Glutamate log2 ratio (+MMV007839/-MMV007839): -0.07518; Glutamine log2 ratio (+MMV007839/-MMV007839): 0.8027; Glutathione disulfide log2 ratio (+MMV007839/-MMV007839): -0.1266; Glutathione log2 ratio (+MMV007839/-MMV007839): -0.02749; Glyceraldehyde 3-phosphate log2 ratio (+MMV007839/-MMV007839): -0.5897; Glycerone phosphate log2 ratio (+MMV007839/-MMV007839): 0.4029; HLD log2 ratio (+MMV007839/-MMV007839): -0.9223; HVDD log2 ratio (+MMV007839/-MMV007839): -1.392; Histidine log2 ratio (+MMV007839/-MMV007839): 0.6908; Homoserine log2 ratio (+MMV007839/-MMV007839): 0.249; Hydroxy-L-proline log2 ratio (+MMV007839/-MMV007839): 0.1081; Hypoxanthine log2 ratio (+MMV007839/-MMV007839): 0.2683; IDP log2 ratio (+MMV007839/-MMV007839): 0.1036; IMP log2 ratio (+MMV007839/-MMV007839): -0.04113; Inosine log2 ratio (+MMV007839/-MMV007839): 0.2492; Isoleucine log2 ratio (+MMV007839/-MMV007839): 0.01345; LD log2 ratio (+MMV007839/-MMV007839): 0.008648; Lactate log2 ratio (+MMV007839/-MMV007839): 2.632; Leucine log2 ratio (+MMV007839/-MMV007839): -0.1293; Lysine log2 ratio (+MMV007839/-MMV007839): 0.8307; Malate log2 ratio (+MMV007839/-MMV007839): -0.2233; Mannitol log2 ratio (+MMV007839/-MMV007839): -0.2308; Methionine log2 ratio (+MMV007839/-MMV007839): -0.1652; Myristic acid log2 ratio (+MMV007839/-MMV007839): -0.3456; N-Acetyl-glutamate log2 ratio (+MMV007839/-MMV007839): -0.8123; N-Carbamoyl-L-aspartate log2 ratio (+MMV007839/-MMV007839): -1.502; NAD+ log2 ratio (+MMV007839/-MMV007839): 0.03216; NADH log2 ratio (+MMV007839/-MMV007839): -1.72; NADP+ log2 ratio (+MMV007839/-MMV007839): -0.3346; Octoluse Bisphosphate log2 ratio (+MMV007839/-MMV007839): 1.811; Ornithine log2 ratio (+MMV007839/-MMV007839): -0.1015; Orotate log2 ratio (+MMV007839/-MMV007839): -1.466; Orotidine 5-phosphate log2 ratio (+MMV007839/-MMV007839): -1.489; Orotidine log2 ratio (+MMV007839/-MMV007839): -1.057; PAEF log2 ratio (+MMV007839/-MMV007839): -1.307; PAVH log2 ratio (+MMV007839/-MMV007839): -1.929; PD log2 ratio (+MMV007839/-MMV007839): 0.2119; PDAV log2 ratio (+MMV007839/-MMV007839): 0.3685; PE log2 ratio (+MMV007839/-MMV007839): 0.9141; PEE log2 ratio (+MMV007839/-MMV007839): -0.2135; PHF log2 ratio (+MMV007839/-MMV007839): 0.05129; PPVQ log2 ratio (+MMV007839/-MMV007839): -0.3492; PVNF log2 ratio (+MMV007839/-MMV007839): -0.8559; PVQ log2 ratio (+MMV007839/-MMV007839): 0.3164; PVQA log2 ratio (+MMV007839/-MMV007839): -1.408; Pantothenate log2 ratio (+MMV007839/-MMV007839): -0.2954; Phenylalanine log2 ratio (+MMV007839/-MMV007839): -0.1326; Phosphoenolpyruvate log2 ratio (+MMV007839/-MMV007839): 0.2604; Pipecolate log2 ratio (+MMV007839/-MMV007839): 0.1041; Proline log2 ratio (+MMV007839/-MMV007839): -0.09895; Pyridoxine log2 ratio (+MMV007839/-MMV007839): -0.07403; Pyruvate log2 ratio (+MMV007839/-MMV007839): 1.858; Ribose-5-phosphate log2 ratio (+MMV007839/-MMV007839): 0.8813; S-Adenosyl-L-homocysteine log2 ratio (+MMV007839/-MMV007839): -0.314; SDGLA log2 ratio (+MMV007839/-MMV007839): -0.3844; SFGD log2 ratio (+MMV007839/-MMV007839): -0.2955; Sedoheptoluse bisphosphate log2 ratio (+MMV007839/-MMV007839): -0.1481; Sedoheptulose-1/7-phosphate log2 ratio (+MMV007839/-MMV007839): 0.2199
